In patent US5360803A, “Composition and method for treating cancer” (Dan Farber Cancer Institute, priority 1992, dated 1994):
Where two headings read alike, the source gives them in different places.

What was measured:
CV-1 cells = test: selective killing assay, colony number reduced to 50% of control, normal monkey kidney epithelial cell line CV-1; type: cell-based; conditions: 24 hours treatment; for IC50: Primates
Excerpt: The control received culture media only.

human melanoma LOX = test: survival of nude mice implanted with human melanoma LOX; type: in vivo, male athymic Swiss nu/nu mouse (human tumor); conditions: Mus musculus, ip, 24 h, read-out: T/C
Experimental: LOX, a human melanoma cell line, grown subcutaneously in nude mice was excised, trypsinized to yield a single cell suspension using a metal grid with a […] mesh. […] Five million viable trypan blue negative cells made up in 0.1 ml of Dulbecco modified Eagle medium (DMFE) were injected into the peritoneal cavity of a male athymic Swiss nu/nu mouse. The control group and each treatment group consisted of 5 to 10 mice. Treatment was commenced the following day by intraperitoneal injection.
Ten control mice received 0.25 ml of 2% dextrose on these days the treated groups were injected with the compounds of this invention. […] T/C is the ratio, expressed as a percentage of the mean survival age of the treated group to the mean survival age of the untreated control group.

CX-1 cells = test: selective killing assay, colony number reduced to 50% of control, human colon carcinoma cell line CX-1; type: cell-based; conditions: for Selectivity (ratio of IC50 for CV-1 and IC50 for CX-1): CV-1/CX-1; for CX-1 (IC50): Table III; for CX-1 (IC50) / IC50: human colon carcinoma, 24 hours treatment, colony count after 7 to 10 days; for IC50: Homo sapiens, CX-1, Table III;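 for all read-outs here: colonies stained with crystal violet and counted, control cells given medium alone, exposure at 37 °C, normal monkey kidney epithelial CV-1 cells as the non-cancer comparator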
Experimental: Human colon carcinoma cell line CX-1 or normal monkey kidney epithelial cell line CV-1 was chosen as representatives of cancer cells and normal cells, respectively. […] CX-1 cells (2,000 cells/well) and CV-1 cells (1,000 cells/well) were plated in 24-well plastic culture plates. […] The control received culture media only. Cells were treated with compounds of General Formulas (I) to (V) at 37° C. for 24 hours. After rinsing with fresh culture medium three times, the cells were further incubated at 37° C. for 7 to 10 days. Cell colonies were fixed and stained with 2% crystal violet in 70% ethanol for 10 minutes and rinsed in water. […] The selectivity is defined as the ratio of IC50 for CV-1 and IC50 for CX-1.

CRL 1420 cells = test: colony assay of Example 1 with human pancreatic carcinoma CRL 1420 cell line; type: cell-based;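 note: colony formation assay, cells exposed for 24 h then regrown 7 to 10 days without compound, colonies stained with crystal violet, control given medium alone, normal reference CV-1 monkey kidney epithelial cells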
LOX cells = test: colony assay of Example 1 with human melanoma LOX cell line; type: cell-based; conditions: for Selectivity: CV-1/LOX; for IC50: Homo sapiens, LOX, 24 h;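 for all read-outs here: colony formation assay with 24 h exposure at 37 °C, then 7 to 10 days of regrowth, crystal violet staining of colonies, control wells given medium alone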
EJ cells = test: colony assay of Example 1 with human bladder carcinoma EJ cell line; type: cell-based; conditions: for Selectivity: CV-1/EJ; for IC50: Homo sapiens, EJ, 24 h, Table IV, human bladder carcinoma, 24 hours treatment;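 for all read-outs here: colony formation assay with 24 h compound exposure at 37 °C, then 7–10 days drug-free regrowth, colonies stained with crystal violet, controls given medium alone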
[1] = Table III, normal monkey kidney epithelial cells, colony count after 7 to 10 days
[2] = 10 mg/kg i.p. on day 1, 4, 8, 10, 12
[3] = Table V, human melanoma, 24 hours treatment
[4] = CV-1, Table III, normal monkey kidney epithelial cells, colony count after 7 to 10 days
[5] = 5 mg/kg i.p. on day 1, 4, 8, 11
[6] = 5 mg/kg i.p. on day 1, 4, 8, 10, 12

CCn1c(=Cc2sc3c4ccccc4ccc3[n+]2CC)sc(=C2Sc3ccc4ccccc4c3N2C)c1=O [Compound 204]
CV-1 (IC50) (CV-1 cells; [1]): 20 µg/mL
CV-1 (IC50) (CV-1 cells; Table V): 20 µg/mL
CV-1 (IC50) (CV-1 cells; Table VII): 20 µg/mL
response vs control in vivo at 10 mg/kg (human melanoma LOX; [2]): > 270%
Selectivity (ratio of IC50 for CV-1 and IC50 for CX-1) (CX-1 cells): 667
CX-1 (IC50) (CX-1 cells): 0.03 µg/mL
Selectivity (CRL 1420 cells; CV-1/CRL-1420): 500
CRL-1420(IC50) (CRL 1420 cells; Table VII, human pancreatic carcinoma, 24 hours treatment): 0.04 µg/mL
Selectivity (LOX cells): 222
LOX(IC50) (LOX cells; [3]): 0.09 µg/mL

CCn1c(=CC2=[N+](CC)CCS2)sc(=C2SC3=C(CCCC3)N2C)c1=O [Compound 211]
response vs control in vivo at 5 mg/kg (human melanoma LOX; 5 mg/kg i.p. on day 1, 4, 8, 10): 194%

CCn1c(=Cc2sc3c4ccccc4ccc3[n+]2CC)sc(=C2Sc3ccc(OC)cc3N2C)c1=O [Compound 53]
IC50 (CV-1 cells; [4]): 10 µg/mL
response vs control in vivo at 10 mg/kg (human melanoma LOX; 10 mg/kg i.p. on day 1, 2, 3, 5, 8, 10, 13): 150%
Selectivity (ratio of IC50 for CV-1 and IC50 for CX-1) (CX-1 cells): 250
IC50 (CX-1 cells): 0.04 µg/mL

CCn1c(=Cc2sc3ccccc3[n+]2CC)sc(=C2Sc3ccc(Cl)cc3N2C)c1=O [Compound 244]
IC50 (CV-1 cells; [4]): 0.05 µg/mL
response vs control in vivo at 10 mg/kg (human melanoma LOX; 10 mg/kg i.p. on day 1, 2, 6, 8, 13): 150%
IC50 (CX-1 cells): 10 µg/mL

C=CCn1c(=Cc2oc3ccccc3[n+]2CC)sc(=C2Sc3ccccc3N2C)c1=O [Compound 3]
IC50 (CV-1 cells; [4]): 6 µg/mL
response vs control in vivo at 5 mg/kg (human melanoma LOX; 5 mg/kg i.p. on day 1, 4, 8, 11, 14, 16): 218%
Selectivity (ratio of IC50 for CV-1 and IC50 for CX-1) (CX-1 cells): 200
IC50 (CX-1 cells): 0.03 µg/mL

CCn1c(=Cc2oc3ccccc3[n+]2C)oc(=C2Sc3ccccc3N2C)c1=O [Compound 11]
IC50 (CV-1 cells; CV-1, 24 h, Table IV): > 20 µg/mL
IC50 (CV-1 cells; CV-1, 24 h, Table V): > 30 µg/mL
IC50 (CV-1 cells; [4]): > 20 µg/mL
Selectivity (EJ cells): > 400
IC50 (EJ cells): 0.05 µg/mL
response vs control in vivo at 5 mg/kg (human melanoma LOX; [5]): 132%
Selectivity (ratio of IC50 for CV-1 and IC50 for CX-1) (CX-1 cells): > 667
IC50 (CX-1 cells): 0.03 µg/mL
Selectivity (LOX cells): > 300
IC50 (LOX cells; [3]): < 0.1 µg/mL

CCn1c(=Cc2sc3ccc4ccccc4c3[n+]2CC)sc(=C2Sc3ccccc3N2C)c1=O [Compound 30]
IC50 (CV-1 cells; [4]): 2 µg/mL
response vs control in vivo at 2.5 mg/kg (human melanoma LOX; 2.5 mg/kg i.p. on day 1, 4, 6, 8): 171%
IC50 (CX-1 cells): 0.01 µg/mL

CCn1c(=C2CCC[n+]3c2sc2ccccc23)sc(=C2Sc3ccccc3N2C)c1=O [Compound 343]
response vs control in vivo at 5 mg/kg (human melanoma LOX; 5 mg/kg i.p. on day 1, 3, 4, 6, 8, 10, 13): 188%

CCn1c(=Cc2cc[n+](CC)c3ccccc23)sc(=C2Sc3ccc4ccccc4c3N2C)c1=O [Compound 90]
IC50 (CV-1 cells; [4]): 8 µg/mL
response vs control in vivo at 5 mg/kg (human melanoma LOX; 5 mg/kg i.p. on day 1, 8, 13): 163%
Selectivity (ratio of IC50 for CV-1 and IC50 for CX-1) (CX-1 cells): 200
IC50 (CX-1 cells): 0.04 µg/mL

CCn1c(=Cc2sc3c4ccccc4ccc3[n+]2CC)sc(=C2Sc3ccc4ccccc4c3N2C)c1=O [Compound 92]
CV-1 (IC50) (CV-1 cells; [1]): 20 µg/mL
response vs control in vivo at 2.5 mg/kg (human melanoma LOX; 2.5 mg/kg i.p. on day 1, 2, 3, 4, 6, 7, 8, 10, 11): 186%
Selectivity (ratio of IC50 for CV-1 and IC50 for CX-1) (CX-1 cells): 500
CX-1 (IC50) (CX-1 cells): 0.04 µg/mL

CCn1c(=Cc2sc3ccc(Cl)cc3[n+]2CC)sc(=C2Sc3ccc4ccccc4c3N2C)c1=O [Compound 94]
IC50 (CV-1 cells; [4]): 20 µg/mL
response vs control in vivo at 10 mg/kg (human melanoma LOX; 10 mg/kg i.p. on day 1, 3, 6, 8, 10, 13, 15): 161%
Selectivity (ratio of IC50 for CV-1 and IC50 for CX-1) (CX-1 cells): 400
IC50 (CX-1 cells): 0.05 µg/mL

CCn1c(=Cc2scc(C)[n+]2CC)sc(=C2Sc3ccccc3N2C)c1=O [Compound 339]
IC50 (CV-1 cells; CV-1, 24 h, Table V): 10 µg/mL
response vs control in vivo at 5 mg/kg (human melanoma LOX; [6]): > 340%
Selectivity (LOX cells): 333
IC50 (LOX cells; [3]): 0.03 µg/mL

CCn1c(=Cc2cccc[n+]2CC)sc(=C2Oc3c(ccc4ccccc34)N2C)c1=O [Compound 214]
IC50 (CV-1 cells; CV-1, 24 h, Table V): 20 µg/mL
response vs control in vivo at 10 mg/kg (human melanoma LOX; [2]): > 300%
Selectivity (LOX cells): 500
IC50 (LOX cells; [3]): 0.04 µg/mL

CCn1c(=Cc2oc3ccc4ccccc4c3[n+]2CC)sc(=C2Oc3ccc4ccccc4c3N2C)c1=O [Compound 87]
IC50 (CV-1 cells; [4]): 20 µg/mL
response vs control in vivo at 10 mg/kg (human melanoma LOX; 10 mg/kg i.p. on day 1, 3, 6, 9, 10): 150%
Selectivity (ratio of IC50 for CV-1 and IC50 for CX-1) (CX-1 cells): 400
IC50 (CX-1 cells): 0.05 µg/mL

CCn1c(=Cc2oc3c4ccccc4ccc3[n+]2CC)sc(=C2Oc3ccc4ccccc4c3N2C)c1=O [Compound 316]
CV-1 (IC50) (CV-1 cells; [1]): 1 µg/mL
response vs control in vivo at 5 mg/kg (human melanoma LOX; [6]): > 340%
Selectivity (ratio of IC50 for CV-1 and IC50 for CX-1) (CX-1 cells): 100
CX-1 (IC50) (CX-1 cells): 0.01 µg/mL

CCn1c(=Cc2oc3cc4ccccc4cc3[n+]2CC)sc(=C2Sc3ccccc3N2C)c1=O [Compound 22]
IC50 (CV-1 cells; CV-1, 24 h, Table IV): 20 µg/mL
IC50 (CV-1 cells; CV-1, 24 h, Table V): 10 µg/mL
IC50 (CV-1 cells; [4]): 10 µg/mL
Selectivity (EJ cells): 100
IC50 (EJ cells): 0.2 µg/mL
response vs control in vivo at 5 mg/kg (human melanoma LOX; [5]): 179%
Selectivity (ratio of IC50 for CV-1 and IC50 for CX-1) (CX-1 cells): 1000
IC50 (CX-1 cells): 0.01 µg/mL
Selectivity (LOX cells): 100
IC50 (LOX cells; [3]): 0.1 µg/mL

CCn1c(=Cc2sc3ccc4ccccc4c3[n+]2CC)sc(=C2Sc3ccccc3N2C)c1=O [Compound 338]
IC50 (CV-1 cells; CV-1, 24 h, Table V): 2 µg/mL
response vs control in vivo at 4 mg/kg (human melanoma LOX; 4 mg/kg i.p. on day 1, 3, 4, 6, 8, 10, 13): 194%
Selectivity (LOX cells): 400
IC50 (LOX cells; [3]): 0.005 µg/mL

CCn1c(=Cc2cc[n+](CC)c3ccccc23)sc(=C2C=Cc3ccccc3N2C)c1=O [Compound 256]
IC50 (CV-1 cells; [4]): 4 µg/mL
response vs control in vivo at 5 mg/kg (human melanoma LOX; [6]): 171%
Selectivity (ratio of IC50 for CV-1 and IC50 for CX-1) (CX-1 cells): 200
IC50 (CX-1 cells): 0.02 µg/mL

CCn1c(=Cc2cccc[n+]2CC)sc(=C2Sc3ccccc3N2C)c1=O [Compound 342]
response vs control in vivo at 5 mg/kg (human melanoma LOX; 5 mg/kg i.p. on day 1, 5, 8, 11, 14): > 350%

CCn1c(=Cc2scc(C)[n+]2CC)sc(=C2Sc3ccc4ccccc4c3N2C)c1=O [Compound 344]
response vs control in vivo at 5 mg/kg (human melanoma LOX; [6]): > 288%

CCn1c(=Cc2sc3ccccc3[n+]2CC)sc(=C2Sc3ccc(C)cc3N2C)c1=O [Compound 50]
IC50 (CV-1 cells; [4]): 8 µg/mL
response vs control in vivo at 5 mg/kg (human melanoma LOX; 5 mg/kg i.p. on day 1, 2, 3, 6, 9, 10, 13): 163%
Selectivity (ratio of IC50 for CV-1 and IC50 for CX-1) (CX-1 cells): 200
IC50 (CX-1 cells): 0.04 µg/mL

CCn1c(=Cc2cccc[n+]2CC)sc(=C2Sc3ccccc3N2C)c1=O [Compound 283]
response vs control in vivo at 5 mg/kg (human melanoma LOX; 5 mg/kg i.p. on day 1, 4, 8, 11, 14): > 350%

CCn1c(=Cc2oc3ccccc3[n+]2CC)sc(=C2Sc3ccccc3N2C)c1=O [Compound 245]
CV-1 (IC50) (CV-1 cells; [1]): 0.02 µg/mL
response vs control in vivo at 15 mg/kg (human melanoma LOX; 15 mg/kg i.p. on day 1, 5, 9, 13, 19): 200%
Selectivity (ratio of IC50 for CV-1 and IC50 for CX-1) (CX-1 cells): 350
CX-1 (IC50) (CX-1 cells): 7 µg/mL
